In US20100284927A1, “USE OF MRI CONTRAST AGENTS FOR EVALUATING THE TREATMENT OF TUMORS” (University of Utah Research Foundation, priority 2007, published 2010):
Where “and” joins values, the source holds several entries; their conditions need not be identical. Identical values can stand only once. Marks after values point to notes of the source that are not given here.

Tests used:
[1] = tested on: MDA-MB-231 human breast cancer tumors; test: Contrast enhanced 2D spin echo MRI, SI enhancement of tumors (section I); format: in vivo, athymic nude mice; settings: 2D SE images; for SI enhancement ratio (SI post/SI pre) of the whole untreated tumor: Gd-(DTPA-BMA) 0.1 mmol-Gd/kg, GDCC-40 0.05 mmol-Gd/kg i.v.; for residual tumor enhancement ratio (SI post/SI pre): residual tumor after treatment, Gd-(DTPA-BMA) 0.1, GDCC-40 0.05 mmol-Gd/kg i.v.
[2] = tested on: MDA-MB-231 human breast cancer tumors; test: DCE-MRI with linear compartmental model, PV and FLR, SI time curves (section I); format: in vivo, athymic nude mice; settings: for FLR, tumor center / FLR, tumor rim / FLR, whole tumor: fractional leakage rate; for FLR, tumor center / FLR, tumor rim / FLR, whole tumor / PV, tumor center / PV, tumor rim / PV, whole tumor: GDCC-40 0.05, Gd-DTPA-BMA 0.1 mmol-Gd/kg; for PV, tumor center / PV, tumor rim / PV, whole tumor: plasma volume; for PV values (range over tumor regions, Table 5) / estimated FLR values (range over tumor regions, Table 5): tumor center to tumor rim
[3] = tested on: HT-29 human colon carcinoma; test: DCE-MRI assessment of anti-angiogenic effect of Avastin, K^trans and fPV of tumor rim; format: in vivo, NCr-nu/nu nude mice; settings: for K^trans 36 h after treatment / fpv 36 h after treatment: 36 h after initiating Avastin 200 μg/mouse i.p.; for K^trans 7 days after treatment / fpv 7 days after treatment: 7 days after initiating Avastin 200 μg/mouse i.p. every 2 days; for K^trans pretreatment / fpv pretreatment: before Avastin, GDCC40K 0.05, Omniscan 0.1 mmol-Gd/kg
[4] = tested on: MDA-MB-231 human breast cancer tumors; test: 2D spin echo MRI with various doses of GDCC-40 (section II); format: in vivo, athymic nude mice; settings: 2D SE images
[5] = tested on: MDA-MB-231 human breast cancer tumors; test: DCE-MRI with linear compartmental model, PV, FLR and PS (section II); format: in vivo, athymic nude mice
[6] = reference (36); cited from earlier work
[7] = tested on: HT-29 human colon carcinoma; test: Effect of Avastin on growth of HT-29 colon cancer; format: in vivo, NCr-nu/nu nude mice; settings: 36 h after Avastin-treatment, 200 μg/mouse i.p.; pre-treatment 508±185 mm^3
Method: The study protocol was approved by the local ethics committee for animal care and use. HT-29 human colon carcinoma cell line was purchased from American Type Culture Collection (ATCC, Manassas, Va.) with ATCC number HTB-38™. HT-29 cell line was cultured using ATCC complete growth medium (5 McCoy's Medium with 10% fetal bovine serum).
Athymic female NCr-nu/nu nude mice at 4 weeks were purchased form National Cancer Institute at Frederick, M D. Concentrated HT-29 cells in complete medium was mixed with Matrigel basement membrane matrix (BD Biosciences, San Jose, Calif.) at 1:1 ratio. 2×10^6 cells in 100 μl mixture were implanted s.c. in the flank of 12 mice weighing about 23 g.
Animals were selected for study when the tumors reached approximately 1 cm in diameter (about 3 weeks after tumor cells inoculation) and were randomly divided into two groups (each group n=6, group1 and group2). One group (group1) underwent DCE-MRI with macromolecular contrast agent-GDCC40K (MW: 40 KDa), and another group (group2) underwent DCE-MRI with small molecular weight contrast agent—Ominiscan (MW: 574 Da). Before treatment, Ominiscan was injected at 0.1 mmol-Gd/kg for […], GDCC40OK (40K Da) was injected at 0.05 mmol-Gd/kg for […]. […]
In addition, tumor size of all animals was determined using a caliper during the study.

[8] = in mice body; cited from earlier work
[9] = tested on: human VEGF-A; settings: in vivo; cited from earlier work
human VEGF-A, sequence (P15692 207-311 limits assumed): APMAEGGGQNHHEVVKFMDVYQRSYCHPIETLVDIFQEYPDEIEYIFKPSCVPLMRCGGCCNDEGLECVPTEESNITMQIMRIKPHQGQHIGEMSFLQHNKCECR

Molecule	SI enhancement ratio (SI post/SI pre) of the whole untreated tumor [1]	residual tumor enhancement ratio (SI post/SI pre) [1]	time at which SI of muscle reached plateau ([2]; DCE-MRI time course)	time at which SI of tumor rim reached a maximum ([2]; DCE-MRI time course)	FLR, tumor center [2]	FLR, tumor rim [2]	FLR, whole tumor [2]	PV, tumor center [2]	PV, tumor rim [2]	PV, whole tumor [2]	PV values (range over tumor regions, Table 5) [2]	estimated FLR values (range over tumor regions, Table 5) [2]	K^trans 36 h after treatment [3]	fpv 36 h after treatment [3]	K^trans 7 days after treatment [3]	fpv 7 days after treatment [3]	K^trans pretreatment [3]	fpv pretreatment [3]	other results
CNC(=O)CN(CCN(CCN(CC(=O)[O-])CC(=O)NC)CC(=O)[O-])CC(=O)[O-].[Gd+3] [Gd-DTPA-BMA, gadodiamide, reference compound]	1.60±0.19	1.66±0.10	about 1.5 min	~7 min	9.93 ± 3.19 h⁻¹	28.42 ± 4.36 h⁻¹	20.86 ± 1.18 h⁻¹	0.098 ± 0.019	0.190 ± 0.018	0.138 ± 0.020	0.098 to 0.190	14.93 to 28.42 h⁻¹	0.066 ± 0.047	0.062 ± 0.039	0.069 ± 0.055	0.137 ± 0.034	0.07 ± 0.013	0.102 ± 0.047	time at which tumor rim/muscle SI ratio reached plateau ([2]; DCE-MRI time course): ≤ 2 min
(Gd-DTPA)-cystamine copolymers [GDCC-40]	1.65±0.21	1.51±0.19	about 1.5 min	about 12 min	3.24 ± 1.10* 1/hr	5.21 ± 0.88* 1/hr	4.57 ± 0.91* 1/hr	0.058 ± 0.046	0.082 ± 0.038	0.076 ± 0.032	0.058 to 0.082	3.24 to 5.21 h⁻¹	0.008 ± 0.004	0.008 ± 0.005	0.028 ± 0.029	0.030 ± 0.022	0.014 ± 0.002	0.028 ± 0.005	ratio of SI at the tumor rim to SI of the muscle ([2]; at 15 min): more than 3; time after injection to reach contrast (SI of tumor rim to SI of muscle) similar to Gd-DTPA-BMA ([2]; mouse, in vivo): about 4 min; untreated tumor enhancement ([4]; 0.01 mmol-Gd/kg): 0.14±0.03; untreated tumor enhancement ([4]; 0.025 mmol-Gd/kg): 0.26±0.05; untreated tumor enhancement ([4]; 0.05 mmol-Gd/kg): 0.62±0.19; FLR, untreated tumor ([5]; 0.01 mmol-Gd/kg): 6.05 and 6.05 ± 3.58; PS, untreated tumor ([5]; 0.01 mmol-Gd/kg): 0.997 ± 0.613; PV, untreated tumor ([5]; 0.01 mmol-Gd/kg): 0.124 and 0.124 ± 0.045; FLR, untreated tumor ([5]; 0.025 mmol-Gd/kg): 5.06 and 5.06 ± 1.84; PS, untreated tumor ([5]; 0.025 mmol-Gd/kg): 0.611 ± 0.351; PV, untreated tumor ([5]; 0.025 mmol-Gd/kg): 0.123 and 0.123 ± 0.059; FLR, untreated tumor ([5]; 0.05 mmol-Gd/kg): 3.95 ± 0.81; PS, untreated tumor ([5]; 0.05 mmol-Gd/kg): 0.517 ± 0.216; PV, untreated tumor ([5]; 0.05 mmol-Gd/kg): 0.103 ± 0.043
Albumin-Gd-DTPA	–	–	–	–	–	–	–	–	–	–	–	–	–	–	–	–	–	–	FLR values estimated using Albumin-Gd-DTPA [6]: 1.27 to 8.10 h⁻¹; PV values estimated using Albumin-Gd-DTPA [6]: 0.023 to 0.065
Bevacizumab [Avastin]	–	–	–	–	–	–	–	–	–	–	–	–	–	–	–	–	–	–	tumor size [7]: 510±171 mm^3; terminal half-life [8]: 1-2 weeks; dose enough to completely inhibit human VEGF-A [9]: 50-100 μg/mouse
